Measured values published in US20180155757A1, “IDENTIFICATION OF BACTERIA THAT ARE RESISTANT TO CARBAPENEMS BY MEMBRANE IMPERVIOUSNESS” (BIOMÉRIEUX, priority 2015, published 2018).

Legend:
Assay in all cases: Etest MIC of indicator carbapenems on MH II agar without/with PMBN
Type in all cases: cell-based
[1] = test system: E. aerogenes 1204050 (membrane impermeability); conditions: in µg/mL
Procedure: (§1) The determinations of antibiotic MIC were carried out on solid culture media with the Etest® method. To do this, Etest® strips (bioMérieux, France) were used: • Etest® Imipenem IM 32, and • Etest® Ertapenem ETP 32, and also solid culture media, differing from one another by virtue of their non-inhibitory concentrations of PMBN.
(§2) These solid culture media are prepared in Petri dishes (0=145 mm; V=50 ml) on a base of MH II Agar (Becton Dickinson®, United States), more or less supplemented with PMBN. The PMBN concentrations range from 0 up to concentrations equivalent to one fifth of the MIC of PMBN (⅕ MICPMBN).
(§3) Using a swab and the Retro C80™ rota-plater (bioMérieux, France), the culture media were inoculated with the bacteria, originating from an inoculum of 0.5 McFarland, prepared in 0.85% NaCl solution from colonies subcultured the day before on MH II agar.
(§4) The various Etest® strips are then deposited on the surface of the culture media. After 16 to 20 hours of incubation at 35° C., the MICS were read.
(§5) By way of indicator carbapenems according to the invention, in addition to imipenem (IM) and ertapenem (ETP), meropenem (MP) was also tested. Like the other two antibiotics, meropenem was used in the form of Etest® strips (Etest® Meropenem MP 32 from the company bioMérieux, France).
(§6) The methods used to prepare the new culture media and to carry out the antibiotic-sensitivity tests are identical to those described above.

[2] = test system: E. cloacae 1008080 (IMP producer); conditions: in µg/mL
Procedure: as §1, §2, §3, §4, §5, §6

[3] = test system: E. cloacae 1109137 (OXA-48 producer)
Procedure: as §1, §2, §3, §4, §5, §6

[4] = test system: E. cloacae 1204051 (membrane impermeability)
Procedure: as §1, §2, §3, §4, §5, §6

[5] = test system: E. cloacae 1204052 (membrane impermeability)
Procedure: as §1, §2, §3, §4, §5, §6

[6] = test system: E. cloacae 1204053 (membrane impermeability)
Procedure: as §1, §2, §3, §4, §5, §6

[7] = test system: E. cloacae 1204056 (membrane impermeability)
Procedure: as §1, §2, §3, §4, §5, §6

[8] = test system: E. cloacae 1204058 (membrane impermeability); conditions: in µg/mL
Procedure: as §1, §2, §3, §4, §5, §6

[9] = test system: E. cloacae 1204153 (membrane impermeability); conditions: in µg/mL
Procedure: as §1, §2, §3, §4, §5, §6

[10] = test system: E. coli 1008078 (VIM producer)
Procedure: as §1, §2, §3, §4, §5, §6

E. coli SAB 100 (porin−) = conditions: Escherichia coli
Procedure: as §1, §2, §3, §4, §5, §6

E. coli SAB 108 (porin−) = conditions: Escherichia coli
Procedure: as §1, §2, §3, §4, §5, §6

[11] = test system: K. pneumoniae 1012142 (KPC-2 producer)
Procedure: as §1, §2, §3, §4, §5, §6

[12] = test system: K. pneumoniae 1103183 (NDM producer)
Procedure: as §1, §2, §3, §4, §5, §6

[13] = test system: K. pneumoniae 1204035 (membrane impermeability); conditions: in µg/mL
Procedure: as §1, §2, §3, §4, §5, §6

[14] = test system: K. pneumoniae 1204036 (membrane impermeability)
Procedure: as §1, §2, §3, §4, §5, §6

[15] = test system: K. pneumoniae 1204039 (membrane impermeability)
Procedure: as §1, §2, §3, §4, §5, §6

[16] = test system: K. pneumoniae KP 55 (porin−); conditions: Klebsiella pneumoniae
Procedure: as §1, §2, §3, §4, §5, §6

[17] = test system: K. pneumoniae KP 63 (porin−); conditions: Klebsiella pneumoniae
Procedure: as §1, §2, §3, §4, §5, §6

## C[C@@H](O)[C@H]1C(=O)N2C(C(=O)O)=C(SCCN=CN)C[C@H]12 [IM, imipenem]
[1]; [PMBN] 0, Table 4a
  MIC: >32
[1]; [PMBN] 100, Table 4a
  MIC: >32
[1]; [PMBN] 200, Table 4a
  MIC: >32
[1]; [PMBN] 300, Table 4a
  MIC: >32
[2]; [PMBN] 0, Table 4a
  MIC: 1
[2]; [PMBN] 100, Table 4a
  MIC: 12
[2]; [PMBN] 200, Table 4a
  MIC: 3
[2]; [PMBN] 300, Table 4a
  MIC: 6
[3]; [PMBN] 0, Table 4a
  MIC: 1.5 µg/mL
[3]; [PMBN] 100, Table 4a
  MIC: 4 µg/mL
[3]; [PMBN] 200, Table 4a
  MIC: 2 µg/mL
[3]; [PMBN] 300, Table 4a
  MIC: 1.5 µg/mL
[4]; [PMBN] 0, Table 4a
  MIC: 1.5 µg/mL
[4]; [PMBN] 100, Table 4a
  MIC: 1.5 µg/mL
[4]; [PMBN] 200, Table 4a
  MIC: 0.75 µg/mL
[4]; [PMBN] 300, Table 4a
  MIC: 0.75 µg/mL
[5]; [PMBN] 0, Table 4a
  MIC: 3 µg/mL
[5]; [PMBN] 100, Table 4a
  MIC: 3 µg/mL
[5]; [PMBN] 200, Table 4a
  MIC: 2 µg/mL
[5]; [PMBN] 300, Table 4a
  MIC: 1.5 µg/mL
[6]; [PMBN] 0, Table 4a
  MIC: 3 µg/mL
[6]; [PMBN] 100, Table 4a
  MIC: 3 µg/mL
[6]; [PMBN] 200, Table 4a
  MIC: 3 µg/mL
[6]; [PMBN] 300, Table 4a
  MIC: 3 µg/mL
[7]; [PMBN] 0, Table 4a
  MIC: 6 µg/mL
[7]; [PMBN] 100, Table 4a
  MIC: 2 µg/mL
[7]; [PMBN] 200, Table 4a
  MIC: 1.5 µg/mL
[7]; [PMBN] 300, Table 4a
  MIC: 1 µg/mL
[8]; [PMBN] 0, Table 4a
  MIC: >32
[8]; [PMBN] 100, Table 4a
  MIC: 12
[8]; [PMBN] 200, Table 4a
  MIC: 4
[8]; [PMBN] 300, Table 4a
  MIC: 3
[9]; [PMBN] 0, Table 4a
  MIC: 4
[9]; [PMBN] 100, Table 4a
  MIC: 4
[9]; [PMBN] 200, Table 4a
  MIC: 2
[9]; [PMBN] 300, Table 4a
  MIC: 4
[10]; [PMBN] 0, Table 4a
  MIC: 0.38 µg/mL
[10]; [PMBN] 100, Table 4a
  MIC: 1.5 µg/mL
[10]; [PMBN] 200, Table 4a
  MIC: 0.75 µg/mL
[10]; [PMBN] 300, Table 4a
  MIC: 0.38 µg/mL
E. coli SAB 100 (porin−); [PMBN] 0
  MIC: 0.5 µg/mL
E. coli SAB 100 (porin−); [PMBN] 50 μg/ml
  MIC: 0.38 µg/mL
E. coli SAB 100 (porin−); [PMBN] 100 μg/ml
  MIC: 0.25 µg/mL
E. coli SAB 100 (porin−); [PMBN] 150 μg/ml
  MIC: 0.19 µg/mL
E. coli SAB 100 (porin−); [PMBN] 200 μg/ml
  MIC: 0.19 µg/mL
E. coli SAB 108 (porin−); [PMBN] 0
  MIC: 0.75 µg/mL
E. coli SAB 108 (porin−); [PMBN] 50 μg/ml
  MIC: 0.38 µg/mL
E. coli SAB 108 (porin−); [PMBN] 100 μg/ml
  MIC: 0.25 µg/mL
E. coli SAB 108 (porin−); [PMBN] 150 μg/ml
  MIC: 0.25 µg/mL
E. coli SAB 108 (porin−); [PMBN] 200 μg/ml
  MIC: 0.19 µg/mL
[11]; [PMBN] 0, Table 4a
  MIC: > 32 µg/mL
[11]; [PMBN] 100, Table 4a
  MIC: > 32 µg/mL
[11]; [PMBN] 200, Table 4a
  MIC: > 32 µg/mL
[11]; [PMBN] 300, Table 4a
  MIC: > 32 µg/mL
[12]; [PMBN] 0, Table 4a
  MIC: 24 µg/mL
[12]; [PMBN] 100, Table 4a
  MIC: > 32 µg/mL
[12]; [PMBN] 200, Table 4a
  MIC: > 32 µg/mL
[12]; [PMBN] 300, Table 4a
  MIC: 6 µg/mL
[13]; [PMBN] 0, Table 4a
  MIC: 1.5
[13]; [PMBN] 100, Table 4a
  MIC: 0.75
[13]; [PMBN] 200, Table 4a
  MIC: 0.5-0.75
[13]; [PMBN] 300, Table 4a
  MIC: 0.5-1
[14]; [PMBN] 0, Table 4a
  MIC: 2 µg/mL
[14]; [PMBN] 100, Table 4a
  MIC: 2 µg/mL
[14]; [PMBN] 200, Table 4a
  MIC: 2 µg/mL
[14]; [PMBN] 300, Table 4a
  MIC: 1.5 µg/mL
[15]; [PMBN] 0, Table 4a
  MIC: 0.38 µg/mL
[15]; [PMBN] 100, Table 4a
  MIC: 0.38 µg/mL
[15]; [PMBN] 200, Table 4a
  MIC: 0.38 µg/mL
[15]; [PMBN] 300, Table 4a
  MIC: 0.38 µg/mL
[16]; [PMBN] 0
  MIC: 0.38 µg/mL
[16]; [PMBN] 50 μg/ml
  MIC: 0.25 µg/mL
[16]; [PMBN] 100 μg/ml
  MIC: 0.25 µg/mL
[16]; [PMBN] 150 μg/ml
  MIC: 0.25 µg/mL
[16]; [PMBN] 200 μg/ml
  MIC: 0.19 µg/mL
[17]; [PMBN] 0
  MIC: 0.25 µg/mL
[17]; [PMBN] 50 μg/ml
  MIC: 0.25 µg/mL
[17]; [PMBN] 100 μg/ml
  MIC: 0.125 µg/mL
[17]; [PMBN] 150 μg/ml
  MIC: 0.125 µg/mL
[17]; [PMBN] 200 μg/ml
  MIC: 0.125 µg/mL
